According to PMC12356538, “Targeting the SARS-CoV‑2 RNA Translation Initiation Element SL1 by Molecules of Low Molecular Weight” (Journal of the American Chemical Society, 2025):
Where two headings read alike, the source gives them in different places.

Key:
[1] = test system: SARS-CoV-2 SL1 RNA (SL1 wt); format: binding; conditions: for FBS binding to SL1, in words: ligand-detected NMR; for FBS binding to SL1, in words / Rank / CSP values relative to A.2: SL1 wt; for wLOGSY factor / T2 reduction [%] / CSP [Hz]: 10 μM SL1 wt, 200 μM ligand; for wLOGSY factor / T2 reduction [%]: pH 6.2; for T2 reduction [%]: CPMG 100 vs 5 ms; for Rank: FBS ranking from summed ranks of CSP, wLOGSY and T2 results; for CSP [Hz]: ligand 1H CSP, [RNA]:[ligand] 1:20, pH 6.2; for CSP values relative to A.2: ligand CSP
SL1 Δbulge RNA = format: binding, SARS-CoV-2
SL1 wt RNA = experiment: NMR-based KD estimation, ligand-detected 1D-1H titration; format: binding, SARS-CoV-2; conditions: Suppl. Table 7, read-out: KDest
[2] = ligand constant at 100, SL1 wt RNA concentration 0-250
[3] = ligand constant at 100, SL1 wt RNA concentration 0-200

| SMILES | FBS binding to SL1, in words [1] | FBS result (CSP, wLOGSY, T2 reduction) in words (SL1 Δbulge RNA) | wLOGSY factor [1] | T2 reduction [%] [1] [%] | Rank [1] | CSP [Hz] [1] [Hz] | other results |
| --- | --- | --- | --- | --- | --- | --- | --- |
| CC(=O)Nc1nc2ccccc2s1 [A.6] | only minor effects |  |  |  |  |  |  |
| CC(C)(C)C(=O)Nc1nc2ccccc2s1 [A.7] | only minor effects |  |  |  |  |  |  |
| CC(C)(C)C(=O)Nc1nc2ccc(Br)cc2s1 [A.8] | only minor effects | no effects |  |  |  |  | Kd (SL1 wt RNA; [2]): 254 µM |
| CNC(=N)Nc1nc2ccc(O)cc2s1 [A.9] |  | no effects | 0.66 | 72.21 | 39 | 3.67 | Kd (SL1 wt RNA; [2]): 436 µM |
| CN(C)CC(=O)Nc1nc2ccc(O)cc2s1 [A.12] | among the weakest binders |  | 0.15 | 69.00 | 40 | 10.02 |  |
| COc1cc(OC)c2nc(NC(=O)CN(C)C)sc2c1 [A.15] |  |  | 2.66 | 36.00 | 16 | 31.92 | CSP values relative to A.2 [1]: 2–3 times; CSP [Hz] (SL1 Δbulge RNA): 9.18 Hz; Rank (SL1 Δbulge RNA): 2; T2 reduction [%] (SL1 Δbulge RNA): 84.62%; wLOGSY factor (SL1 Δbulge RNA): 0.47; Kd (SL1 wt RNA; [3]): 108 µM |
| CN(C)CC(=O)Nc1nc2ccc(Br)cc2s1 [A.16] |  | no effects | 0.74 | 83.00 | 17 | 27.60 | CSP values relative to A.2 [1]: 2–3 times |
| COc1ccc2nc(NC(=O)CN3CCN(C)CC3)sc2c1 [A.18] | positive effect on SL1 binding | no effects | 0.80 | 91.00 | 12 | 22.14 |  |
| CSc1ccc2nc(NC(=O)CN(C)C)sc2c1 [A.19] |  | no effects | 0.46 | 87.00 | 18 | 25.08 |  |
| COc1ccc2nc(NC(=O)CN(C)C)[nH]c2c1 [A.20] | higher score than that of A.2 | no effects | 0.62 | 87.00 | 15 | 25.08 |  |
| COc1ccc(-c2nnc(NC(=O)CN(C)C)s2)cc1 [A.21] |  |  | 1.43 | 95.00 | 13 | 12.57 |  |
| COc1ccc(-c2nnc(N)s2)cc1 [A.22] | no hit |  |  |  |  |  |  |
| COc1ccc(-c2nnc(N)s2)cc1OC [A.23] | no hit |  |  |  |  |  |  |
| CN(C)CC(=O)Nc1nc2ccc(N)cc2s1 [A.24] | among the weakest binders | no effects | 0.49 | 69.42 | 35 | 11.40 |  |
| COc1cc(OC)c2nc(NC(=O)CN(C)Cc3ccccc3)sc2c1 [A.25] |  | no effects |  |  |  |  |  |
| CN(C)CC(=O)Nc1nc2ccc(C(F)(F)F)cc2s1 [A.27] |  | no effects |  |  |  |  |  |
| CN(C)CC(=O)Nc1nc2ccc(OC(F)(F)F)cc2s1 [A.28] |  | no effects | 1.01 | 85.67 | 21 | 13.56 |  |

| SMILES | FBS binding to SL1, in words [1] | FBS result (CSP, wLOGSY, T2 reduction) in words (SL1 Δbulge RNA) | wLOGSY factor [1] | T2 reduction [%] [1] [%] | Rank [1] | CSP [Hz] [1] [Hz] | other results |
| --- | --- | --- | --- | --- | --- | --- | --- |
| COCCN(C)CC(=O)Nc1nc2ccc(OC)cc2s1 [A.30] |  |  | 0.14 | 77.69 | 35 | 10.44 |  |
| CN(C)CC(=O)Nc1nc2ccc(S(C)(=O)=O)cc2s1 [A.32] |  | no effects | 0.22 | 46.43 | 41 | 6.54 |  |
| COc1ccc2nc(NC(=O)CN(C)Cc3cncnc3)sc2c1 [A.33] | detrimental to binding to SL1 |  |  |  |  |  |  |
| COc1ccc2nc(N(C)C(=O)CN(C)C)sc2c1 [A.34] | slightly higher affinity |  | 2.15 | 81.54 | 13 | 19.56 |  |
| COc1ccc2nc(NC(=O)CN(C)C)oc2c1 [A.35] | did not show any improvement | no effects |  |  |  |  |  |
| COc1ccc2nc(NC(=O)CN3CCC[C@@H](N)C3)sc2c1 [A.37] | positive effect on SL1 binding | no effects | 1.01 | 100.00 | 3 | 24.72 | Kd (SL1 wt RNA; [3]): 171 µM |
| COc1ccc2nc(NC(=O)CN(C)C)sc2n1 [A.38] | did not show any improvement | no effects | 1.22 | 73.62 | 23 | 16.14 |  |
| COc1ccc2nc(NC(=O)CN3CCN(C)CC3)[nH]c2c1 [A.40] | reduced activity | no effects | 0.68 | 41.23 | 37 | 9.48 |  |
| CN(C)CC(=O)Nc1nnc(-c2cc([N+](=O)[O-])cc([N+](=O)[O-])c2)s1 [A.41] |  | no effects | 0.59 | 93.02 | 21 | 13.68 |  |
| CN(C)CC(=O)Nc1nnc(-c2ccc([N+](=O)[O-])cc2)s1 [A.42] |  | no effects | 0.90 | 86.63 | 24 | 12.36 |  |
| CN(C)CC(=O)Nc1nnc(-c2cc(F)c(Cl)c([N+](=O)[O-])c2Cl)s1 [A.43] |  | no effects | 0.00 | 91.98 | 31 | 8.40 |  |
| COc1ccc2nc(NC(=O)CN(C)C3CC(C)(C)NC(C)(C)C3)sc2c1 [A.44] |  | no effects | 1.19 | 76.80 | 27 | 12.99 |  |
| CN(C)CC(=O)Nc1nc2cnc(Cl)nc2s1 [A.46] | did not show any improvement | no effects |  |  |  |  |  |
| COc1ncc2nc(NC(=O)CN(C)C)sc2n1 [A.47] | did not show any improvement | no effects |  |  |  |  |  |
| COc1ccc2nc(NC(=O)CN3CCC[C@H](NCc4cccc(O)c4)C3)sc2c1 [A.52] |  | no effects | 0.00 | 83.78 | 29 | 20.01 |  |
| COc1ccc2nc(NC(=O)CN3CCC[C@@H](NCc4cccc(O)c4)C3)sc2c1 [A.53] |  | no effects | 0.00 | 85.86 | 28 | 21.03 |  |
